Experimental findings from ChEMBL document CHEMBL1149454, “Synthesis and in vitro antitubercular activity of some 1-[(4-sub)phenyl]-3-(4-{1-[(pyridine-4-carbonyl)hydrazono]ethyl}phenyl)thiourea” (Bioorg Med Chem Lett, 2006) are described below.

In brackets after ≈: the same amount, converted by molar mass.

For the assay, the system named is Mycobacterium tuberculosis. As to the kind of experiment: Antibacterial activity against INH-resistant Mycobacterium tuberculosis. Format: functional.

For orientation: MIC means the smallest concentration in the dilution series that meets the test's criterion for growth inhibition. A high value points to weaker potency. The molecule `C/C(=N/NC(=O)c1ccncc1)c1ccc(N/C(S)=N/c2ccc(C)cc2)cc1` returned an MIC of 3.86 µM (≈ 1.56 µg/mL).

`C/C(=N/NC(=O)c1ccncc1)c1ccc(N/C(S)=N/c2ccc(F)cc2)cc1` yielded an MIC of 0.49 µM (≈ 0.2 µg/mL).

For the molecule `COc1ccc(N/C(S)=N\c2ccc(/C(C)=N\NC(=O)c3ccncc3)cc2)cc1`, the MIC turned out to be 1.85 µM (≈ 0.776 µg/mL).

Molecule `CCOc1ccc(N/C(S)=N\c2ccc(/C(C)=N\NC(=O)c3ccncc3)cc2)cc1` displayed an MIC of 1.79 µM (≈ 0.776 µg/mL).

Turning to `C/C(=N/NC(=O)c1ccncc1)c1ccc(N/C(S)=N/c2ccccc2)cc1`, it took 4 µM (≈ 1.56 µg/mL) to inhibit growth (MIC).

Molecule `C/C(=N/NC(=O)c1ccncc1)c1ccc(N/C(S)=N/c2ccc(Br)cc2)cc1` came in with a minimum inhibitory concentration (MIC) of 1.66 µM (≈ 0.778 µg/mL).

The molecule `NNC(=O)c1ccncc1` [ISONIAZID] returned an MIC of 90.9 µM (≈ 12.5 µg/mL).
